The values below come from patent US20100113391A1, “BICYCLIC HETEROCYCLIC COMPOUND” (Astellas Pharma Inc., priority 2007, published 2010).

One may read the inhibition as the percentage by which the read-out fell short of the control. A word on the % Inhibition: it is the percentage by which the read-out fell short of the control. A high value points to strong suppression.

In assay [1] the test system is human platelets (platelet rich plasma), ADP-induced aggregation. The assay is described as follows: Human platelet aggregation inhibitory activity measurement test (ADP-induced, PRP). The assay is classed as cell-based. The note with it: compound 10 μM (final concentration); ADP-induced aggregation of human PRP; area under the platelet aggregation curve. The method, then:
Test Method (1) Human Platelet Aggregation Inhibitory Activity Measurement Test
Using a syringe in which 1/10 vol of a 3.8% sodium citrate solution is contained, blood was collected from a healthy volunteer (adult). The blood was subjected to a centrifugation at 160×g for 10 minutes and a supernatant platelet rich plasma (PRP) was separated. The remaining blood of which the PRP has been collected was subjected to a centrifugation at 1,800×g for 10 minutes and a platelet poor plasma (PPP) was separated. The number of the platelets in the PRP was measured using an automatic blood cell counter (MEK-6258, Nihon Kohden Corporation). After that, the PPP was added to the PRP to adjust the number of the platelets to 3×10^8 /ml, thereby using the platelets for the following tests. As an ADP, which is a platelet aggregating agent, a product manufactured by MC Medical Inc. was used. The platelet aggregation was measured using a platelet aggregometer (MCM Hematracer 212; MC medical Inc.). That is, 80 μl of the PRP having the number of the platelets of 3×10^8 /ml and 10 μl of a test compound solution or solvent (10% DMSO or 10% DMSO-9% hydroxypropyl-β-cyclodextrin-4.5% d-mannitol) were incubated at 37° C. for 1 minute and then 10 μl of ADP (50 μM) was added to the mixture to cause platelet aggregation, thereby recording a variation in transmitted light for 5 minutes. An inhibition rate was calculated using an area under the platelet aggregation curve as an index. In addition, Ex represents a number of the compounds of Examples.

Assay [2] has as its system rat platelets (PRP), ADP-induced aggregation. Description: Rat platelet aggregation inhibition test (ex vivo after oral administration). The class given is in vivo. To be noted: male SD rat, 30 mg/kg orally, blood collected 2 hours after administration; ADP-induced aggregation of PRP. The method, then: Test Method (3) Rat Platelet Aggregation Inhibition Test and Measurement of Test Compound Concentration in Plasma
An aqueous sodium hydroxide solution and the same amount of a 1% aqueous methyl cellulose solution were added to the compound of the invention to prepare a 0.5% aqueous methyl cellulose solution or a suspension solution. This preparation solution was orally administered to a male SD rat (5 to 7 weeks old) which has been fasted over 12 hours using a sonde at a dose of 30 mg/kg. After 2 hours later since the administration of the compound, using a syringe in which 1/10 vol of a 3.8% sodium citrate solution is contained, a blood was collected. In the same manner as in Test Method (1), a PPP and a PRP having the number of the platelets as 3×10^8 /ml were prepared. 90 μl of the PRP having the number of the platelets of 3×10^8 /ml was incubated at 37° C. for 1 minute and then 10 μl of ADP (50 μM) was added thereto to cause platelet aggregation, thereby recording a variation in transmitted light for 5 minutes. An inhibition rate was calculated using an area under the platelet aggregation curve as an index.

The target in another assay is T1, Human P2Y12 (Homo sapiens, UniProt Q9H244).
T1 construct: expressed in transfected cells
T1 sequence (Q9H244 whole entry): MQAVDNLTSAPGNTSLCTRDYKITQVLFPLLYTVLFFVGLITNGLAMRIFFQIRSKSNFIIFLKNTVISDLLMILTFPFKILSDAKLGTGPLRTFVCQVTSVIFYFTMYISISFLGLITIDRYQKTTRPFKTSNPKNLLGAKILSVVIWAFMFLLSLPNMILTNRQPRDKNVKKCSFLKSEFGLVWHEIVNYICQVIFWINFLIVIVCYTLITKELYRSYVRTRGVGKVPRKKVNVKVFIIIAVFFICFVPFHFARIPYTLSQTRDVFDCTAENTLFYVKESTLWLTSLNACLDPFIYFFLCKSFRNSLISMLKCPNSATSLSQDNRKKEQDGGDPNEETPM
Description: Substitution test for the binding between human P2Y12 and 2-methylthio-ADP (2-MeS-ADP). To be noted: compound 30 nM (final concentration); [33P]-2-MeS-ADP binding to P2Y12 protein-expressing C6-15 cell membrane fraction. The method, then:
Test Method (2) Substitution Test for the binding between Human P2Y12 and 2-methylthio-ADP(2-MeS-ADP)
In a 10 cm petri dish, C6-15 cells were spread to be 1×10^6 of cells by using a DMEM culture medium and cultured for 1 day. After that, genes of plasmids such as 8 μg of pEF-BOS-dhfr-human P2Y12 and 0.8 μg of pEF-BOS-neo (Nucleic Acid Res., 18, 5322, 1990) were introduced to the cells using a transfection reagent (LipofectAMINE 2000; manufactured by GIBCO BRL Inc.).
After 24 hours since the above-mentioned gene introduction operation had been completed, the cells to which the genes were introduced were recovered and suspended in a DMEM culture medium containing 0.6 mg/ml of G418 (manufactured by GIBCO BRL Inc.). After that, the cells were serially diluted and spread on a 10 cm petri dish. Colonies appeared after 2 weeks later were individually collected and used in the following tests as P2Y12 protein-expressing C6-15 cells (WO 02/36631, Mol. Pharmacol., 60, 432, 2001).
The P2Y12 protein-expressing C6-15 cells were cultured and then the cells were recovered. The cells were washed with PBS, suspended in 20 mM Tris-HCl (pH 7.4) containing 5 mmol/l EDTA and Complete™ (manufactured by Boehringer Mannheim) which is a protease inhibitor cocktail set, and homogenized by Polytron. The cells were subjected to an ultracentrifugation and a precipitate is suspended in 50 mM Tris-HCl (pH 7.4) containing 1 mM of EDTA, 100 mM NaCl, and Complete™ to perform membrane fraction.
To 100 μl of the P2Y12 protein-expressing C6-15 cell membrane fraction (100 μg/ml) produced as mentioned above, 1.5 μl of a test compound solution and 50 μl of 0.75 nM [^33P]-2-MeS-ADP (2100 Ci/mmol, manufactured by PerkinElmer Inc.) were added. The mixture was incubated in 50 mM Tris-HCl (pH 7.4) containing 100 mM NaCl and 50 mM MgCl2 at room temperature for 1 hour, and then recovered by cell harvest on a glass filter. Microscintillators were added to the glass filter and the radioactive activity was measured by a liquid scintillation counter. In addition, simultaneously, the radioactivity in the case where only a solvent is added to the above-mentioned test and in the case where 1.5 μl of 250 μM ADP is added thereto were measured respectively as the total binding amount and the nonspecific binding amount. The total binding amount and the nonspecific binding amount were set respectively as the inhibition rate of 0% and the inhibition rate of 100% to calculate the inhibition rate (%) of the test compound.

With `O=C(O)/C=C/Cn1c(=O)c2cc(F)c(NC3CCCCC3)cc2n(C2CCCC2)c1=O` [Example 65], in assay [1], the inhibition at 10 µM is 86%. For the same compound, the “% Inhibition” value in assay [2] was 56%.

For the compound `O=C(O)CCCNn1c(=O)c2cc(F)c(NC3CCCCC3)cc2n(C2CCCC2)c1=O` [Example 155], the inhibition at 10 µM in assay [1] came out at 93%. Further, testing at 0.03 µM at Human P2Y12 gave an inhibition of 72%.

In turn, `O=C(O)COn1c(=O)c2cc(F)c(NC3CCCCC3)cc2n(C2CCCC2)c1=O` [Example 24, {[7-(cyclohexylamino)-1-cyclopentyl-6-fluoro-2,4-dioxo-1,4-dihydroquinazolin-3(2H)-yl]oxy}acetic acid] returned an inhibition at 10 µM in assay [1] of 89%. The same compound registered an inhibition at 0.03 µM at Human P2Y12 of 60%.

For the compound `O=C(O)CNC(=O)Cn1c(=O)c2cc(F)c(NC3CCCCC3)cc2n(C2CCCC2)c1=O` [Example 42], in assay [1], the inhibition at 10 µM came out at 75%. The compound also yielded an inhibition at 0.03 µM on Human P2Y12 of 56%.

Regarding `O=C(O)COc1cccc(Cn2c(=O)c3cc(F)c(NC4CCCCC4)cc3n(C3CCCC3)c2=O)c1` [Example 157], the inhibition at 0.03 µM on Human P2Y12 was 67%.

`CC(CCn1c(=O)c2cc(F)c(NC3CCCCC3)cc2n(C2CCCC2)c1=O)C(=O)O` (centres unmarked) [Example 114]: in assay [1], the inhibition at 10 µM amounted to 91%. This compound registered an inhibition at 0.03 µM at Human P2Y12 of 71%. Also, the “% Inhibition” value in assay [2] is 90%.

For `O=C(O)Cn1c(=O)c2cc(F)c(NCC3CC3)cc2n(C2CCCC2)c1=O` [Example 69], in assay [1], at 10 µM the inhibition was 50%.

Compound `CC(C)n1c(=O)n(CCCC(=O)O)c(=O)c2cc(F)c(NC3CCCCC3)cc21` [Example 77] displayed an inhibition at 10 µM in assay [1] of 88%.
